Test [1] concerns cytoplasmic protein acetylation. In words: Immunofluorescence of cytoplasmic acetyl-lysine-containing proteins. The test is classed as cell-based, human. The note with it: for cytoplasmic protein acetylation in starved cells: nutrient-depleted (starved) cells in vitro; for cytoplasmic protein acetylation: cells kept in rich medium. On the procedure: Cells were fixed with 4% PFA for 15 min at room temperature, and permeabilized with 0.1% Triton X-100 for 10 min, except for staining of cytoplasmic acetyl-lysine-containing proteins, in which any permeabilization step further than PFA fixation was avoided. Non-specific binding sites were blocked with 5% bovine serum in PBS, followed by staining with primary antibodies overnight at 4° C. Development was carried out with appropriate AlexaFluor™ conjugates (Molecular Probes-Invitrogen). In the case of cytoplasmic acetyl-lysine staining, an additional step of blocking using anti-acetylated-tubulin antibody (1:200) was applied. Ten μM Hoechst 33342 (Molecular Probes-Invitrogen) was employed for nuclear counterstaining. Fluorescence and confocal fluorescence microscopy assessments were performed on an IRE2 microscope (Lcica Microsystems) equipped with a DC300F camera and with an LSM 510 microscope (Carl Zeiss, Jena, Germany), respectively.
U2OS, HeLa or H4 cells stably expressing GFP-LC3 were seeded in 96-well imaging plates (BD Falcon, Sparks, USA) 24 h before stimulation. Cells were treated with the indicated agents for 4 h. Subsequently, cells were fixed with 4% PFA and counterstained with 10 μM Hoechst 33342. Images were acquired using a BD pathway 855 automated microscope (BD Imaging Systems, San Jose, USA) equipped with a 40× objective (Olympus, Center Valley, USA) coupled to a robotized Twister II plate handler (Caliper Life Sciences, Hopkinton, USA). Images were analyzed for the presence of GFP-LC3 puncta in the cytoplasm by means of the BD Attovision software (BD Imaging Systems). Cell surfaces were segmented and divided into cytoplasmic and nuclear regions according to manufacturer standard proceedings. RB 2×2 and Marr-Hildreth algorithms were used to recognize cytoplasmic GFP-LC3 positive dots. Statistical analyses were implemented on the R software (http://www.r-project.org/). For quantitative analyses of protein acetylation, cell surfaces were segmented into cytoplasm and nuclei regions, and staining intensity of each individual cell was measured for statistical analysis.
Cells were fixed with 4% PFA for 15 min at room temperature, and permeabilized with 0.1% Triton X-100 for 10 min. For cytoplasmic Acetyl Lysine staining, we proceeded as described in 35. Non-specific binding sites were blocked with 5% bovine serum albumin in PBS, followed by incubation with primary antibodies overnight at 4° C. After 1 hour incubation, appropriate Alexa-conjugated Fluorophores (Invitrogen) were used for antigen detection. Ten μM Hoechst 33342 (Molecular Probes-Invitrogen, Eugene, USA) was employed for nuclear counterstaining Fluorescence wide-field and confocal microscopyassessments were performed on an DM IRE2 microscope (Leica Microsystems, Wetzlar, Germany) equipped with a DC300F camera and with an LSM 510 microscope (Carl Zeiss, Jena, Germany), respectively.
U2OS and H4 cells stably expressing GFP-LC3 were seeded in 96-well or 384-well imaging plates (BD Falcon, Sparks, USA). 24 h before stimulation, ells were treated with the indicated agents for 6 hours in absence of lysososomal ATPase inhibitors and for 3 hours in presence of Bafilomycin A1. Subsequently, cells were fixed with 4% PFA and counterstained with 10 μM Hoechst 33342. Images were acquired using a BD pathway 855 automated microscope (BD Imaging Systems, San Jose, USA) equipped with a 40× objective (Olympus, Center Valley, USA) coupled to a robotized Twister II plate handler (Caliper Life Sciences, Hopkinton, USA). […]

For a further test, the system named is EP300. Kind of test: Acetylation of EP300 K1499 in starved cells. Particulars: nutrient-free conditions. In kind it is cell-based.
The subject of the next test is cellular ATP levels. In words: Cellular ATP levels. The test is classed as cell-based.
Test [2] has as its system turnover of long-lived proteins. In words: Turnover of long-lived proteins. In kind it is cell-based, human. The note with it: for starvation-induced turnover of long-lived proteins: starved cells.
Test [3] has as its system cytoplasts of U2OS cells stably expressing GFP-LC3. In words: Autophagic flux in cytoplasts (enucleated GFP-LC3 cells). Particulars: presence of BafA1, compared with nucleated control cells. The test is classed as cell-based, human. As for the experimental part:
U2OS cells stably expressing GFP-LC3 were trypsinized and incubated in 3 ml of complete medium supplemented with […] cytochalasin B for 45 min at 37° C. This cell suspension was layered onto a discontinuous Ficoll density gradient (3 mL of 55%, 1 mL of 90%, and 3 mL of 100% Ficoll-Paques; GE Healthcare) in complete medium containing […] cytochalasin B. Gradients were prepared in ultracentrifuge tubes and pre-equilibrated at 37° C. in a CO2 incubator overnight. Gradients containing cell suspensions were centrifugated in a prewarmed rotor (SW41; Beck-man Coulter) at 30,000 g for 30 min at 32° C. The cytoplast-enriched fraction was collected from the interface between 55 and 90% Ficoll layers, washed in complete medium, and incubated for 4 h at 37° C. before treatments.

The structures appear in SMILES notation. Entries after “also recorded” stand apart in the source; their conditions may differ.

On to `O=C(O)CCCCC1CCSS1` (stereo not drawn) [LA, lipoic acid], for which the “cytoplasmic protein acetylation in starved cells” value in test [1] was “increased both cellular AcCoA levels (K) and cytoplasmic protein acetylation; also recorded: maintain high AcCoA and cytoplasmic acetylation levels”. Also, the “starvation-induced deacetylation of the K1499 residue in EP300” value (“starvation-induced deacetylation” for short) in the test with EP300 is recorded as “could be avoided”. Besides, the “cellular ATP levels in starved cells” value with cellular ATP levels is on record as “induced a decrease in cellular ATP”. In addition, the “starvation-induced turnover of long-lived proteins” value in test [2] was “blunted”.

With `N#CC(=Cc1cn(-c2ccccc2)c2ccccc12)C(=O)O` [UK5099, 2-Cyano-3-(1-phenyl-1H-indol-3-yl)-2-propenoic acid], the cytoplasmic protein acetylation entry in test [1] was “reduced both AcCoA levels (A, E) and cytoplasmic protein acetylation; also recorded: deacetylation of cytoplasmic proteins”. Besides, the “cellular ATP levels” value with cellular ATP levels (cells in rich medium) is recorded as “without reducing ATP”. Also, the “autophagy-dependent turnover of long-lived proteins” value in test [2] (cells in rich medium) is recorded as “increased the autophagy-dependent turnover of long-lived proteins”. In test [3], the “autophagic flux in cytoplasts” value was “stimulated autophagy in cytoplasts as efficiently as in nucleated control cells; also recorded: stimulated autophagic flux in cytoplasts as efficiently as in nucleated control cells”.

`COC(=O)CCC(=O)C(=O)OC` [DMKG, dimethyl-α-ketoglutarate]: in test [1], the “cytoplasmic protein acetylation in starved cells” value is “increased cellular AcCoA levels (E) and cytoplasmic protein acetylation; also recorded: maintained high AcCoA and cytoplasmic acetylation levels”. The “starvation-induced deacetylation” value in the test on EP300 is “could be avoided”. Besides, the “cellular ATP levels in starved cells” value in the test with cellular ATP levels is on record as “induced a decrease in cellular ATP”.

As to `O=C(O)c1cccc(C(=O)O)c1C(=O)O` [BTC, 1,2,3-benzenetricarboxylate], in test [1], the cytoplasmic protein acetylation entry is “reduced both AcCoA levels (A) and cytoplasmic protein acetylation; also recorded: protein deacetylation”. Besides, the “autophagic flux in cytoplasts” value in test [3] is “stimulated autophagy in cytoplasts as efficiently as in nucleated control cells; also recorded: stimulated autophagic flux in cytoplasts as efficiently as in nucleated control cells”.

For the compound `CC(C)CC(=O)C(=O)O` [KIC, ketoisocaproic acid], in test [1], the “cytoplasmic protein acetylation in starved cells” value is “increase in AcCoA levels (A) and cytoplasmic protein acetylation; also recorded: sufficient to avoid AcCoA depletion and protein deacetylation”. In addition, the “starvation-induced deacetylation” value with EP300 is “could be avoided”. The “cellular ATP levels in starved cells” value in the test on cellular ATP levels is given as “induced a decrease in cellular ATP”. For the same compound, the “starvation-induced turnover of long-lived proteins” value in test [2] was “inhibited the starvation-induced increase in autophagic flux and turnover of long-lived proteins”.

As to `CC(C)C[C@H](N)C(=O)O` [leucine], the “cytoplasmic protein acetylation in starved cells” value in test [1] was “sufficient to maintain high AcCoA levels and cytoplasmic protein acetylation”.

With `O=C(O)CC(O)(C(=O)O)C(O)C(=O)O` (stereo not drawn) [HC, hydroxycitrate], the cytoplasmic protein acetylation result in test [1] was “reduced both AcCoA levels (E, I) and cytoplasmic protein acetylation; also recorded: induced cytosolic protein deacetylation; also recorded: induced cytoplasmic protein deacetylation”; in test [1] (listed as Hydroxycitrate), “reduces cytoplasmic; also recorded: reduced cytoplasmic protein acetylation”. In addition, the “autophagic flux in cytoplasts” value in test [3] was “stimulated autophagy in cytoplasts as efficiently as in nucleated control cells; also recorded: stimulated autophagic flux in cytoplasts as efficiently as in nucleated control cells”.

Values taken from patent publication US11040052B2, “Methods and pharmaceutical compositions for modulating autophagy in a subject in need thereof” (INSERM (INSTITUT NATIONAL DE LA SANTE ET DE LA RECHERCHE …, priority 2013, dated 2021).
